# Assay results: US20250121068A1, “BIFUNCTIONAL MOLECULES AS PROTEASOME STIMULATORS FOR IMPROVED TARGETED PROTEIN DEGRADATION, AND THEIR USES AS TARGETED BOOSTING DEGRADERS (TARBODS)” (BOOSTER THERAPEUTICS GMBH, priority 2021, published 2025)
# Key:
# a-synuclein = target: T1, a-synuclein (Homo sapiens, UniProt P37840); test: a-synuclein degradation in HEK293 cells (western blot); type: cell-based; details: a-synuclein transfection 48 h, dosed 3 h at 25 μM with 50 μM cycloheximide, compared to DMSO and MO
# T1 construct: expressed in transfected cells; host or cells: HEK293
# Description: After a-synuclein transfection for 48 h, the compounds were dosed for 3 h at 25 μM together with 50 μM cycloheximide, and the total a-synuclein was determined using western blot. DMSO samples were used as control (dashed line).
# FIGS. 2 to 4 show the results of the functional assay for the compounds of group I, FIG. 2 based on proteasome stimulation in vitro. The biochemical assay was performed with a purified human 20S proteasome. The compounds were incubated with 20S proteasomes for 1 h, and the proteasome activity was measured with a TAS-1 probe. DMSO samples were used as control. […] The inventive compounds are better stimulators than the activator alone (MO), especially when they have a longer linker, e.g. (PEG)4-5.
# tau = tau degradation in HEK293 cells (western blot); type: cell-based; details: tau transfection 48 h, dosed 16 h at 25 μM with 30 μM cycloheximide, DMSO control
# Description: After tau transfection for 48 h, the compounds were dosed for 16 h at 25 μM together with 30 μM cycloheximide, and total tau was determined (western blot). DMSO samples were used as control (dashed line).
# The biochemical assay was performed with a purified human 20S proteasome. The compounds were incubated with 20S proteasomes for 1 h, and the proteasome activity was measured with a TAS-1 probe. DMSO samples were used as control (dashed line). The inventive compounds are better stimulators than the activator alone (MO), especially when they have a longer linker, e.g., (PEG)4-5. […] For proteasome activity in HEK293 cells, the compounds were dosed for 1.5 h, and the proteasome activity measured with Me4BodipyFLAhx3L3VS activity probe. DMSO samples were used as control (dashed line). […] Compounds were dosed for 24 h, and the viability measured with CellTiter-Glo. DMSO samples were used as control (dashed line). […] After tau transfection for 48 h, the compounds were dosed for 16 h at 25 μM together with 30 μM cycloheximide, and total tau was determined (western blot). DMSO samples were used as control (dashed line).
smiles,measurement,setting,value
"CNc1ccc(-c2nc3ccc(OCCOCCOCCOCCNC(=O)c4ccc(COC(Cn5ccnc5)c5ccc(Cl)cc5Cl)cc4)cc3s2)cc1 (stereo not drawn) [DS003, 4-((1-(2,4-dichlorophenyl)-2-(1H-imidazol-1-yl)ethoxy)methyl)-N-(2-(2-(2-(2-((2-(4-(methylamino)phenyl)benzo[d]thiazol-6-yl)oxy)ethoxy)ethoxy)ethoxy)ethyl)benzamide]",a-synuclein degradation (total a-synuclein),a-synuclein,clear improvement in degrading a-synuclein
"O=C(CCc1ccc2c(c1)[nH]c1ccncc12)NCCOCCNC(=O)c1ccc(COC(Cn2ccnc2)c2ccc(Cl)cc2Cl)cc1 (stereo not drawn) [DT-001, N-(2-(2-(3-(5H-pyrido[4,3-b]indol-7-yl)propanamido)ethoxy)ethyl)-4-((1-(2,4-dichlorophenyl)-2-(1H-imidazol-1-yl)ethoxy)methyl)benzamide]",tau degradation (total tau),tau,clear tau degradation improvement
"CNc1ccc(-c2nc3ccc(OCCOCCNC(=O)c4ccc(COC(Cn5ccnc5)c5ccc(Cl)cc5Cl)cc4)cc3s2)cc1 (stereo not drawn) [DS001, 4-((1-(2,4-dichlorophenyl)-2-(1H-imidazol-1-yl)ethoxy)methyl)-N-(2-(2-((2-(4-(methylamino)phenyl)benzo[d]thiazol-6-yl)oxy)ethoxy)ethyl)benzamide]",a-synuclein degradation (total a-synuclein),a-synuclein,clear improvement in degrading a-synuclein
